Measurements from patent US12466839B2, “Allosteric AKT inhibitors for use in the treatment of Hereditary Hemorrhagic Telangiectasia” (VADERIS THERAPEUTICS AG, priority 2020, dated 2025).
pIC50: −log10 of the molar value.

Tests used:
D1 = target: T1, D1 (Homo sapiens, UniProt P21728); assay: Millipore Drug Discovery Safety and Liability Panel; format: cell-based
T1 construct: purchased Millipore

BB2 = target: T2, BB2 (Homo sapiens, UniProt P30550); assay: as above; format: cell-based
T2 construct: purchased Millipore
T2 sequence (P30550 whole entry): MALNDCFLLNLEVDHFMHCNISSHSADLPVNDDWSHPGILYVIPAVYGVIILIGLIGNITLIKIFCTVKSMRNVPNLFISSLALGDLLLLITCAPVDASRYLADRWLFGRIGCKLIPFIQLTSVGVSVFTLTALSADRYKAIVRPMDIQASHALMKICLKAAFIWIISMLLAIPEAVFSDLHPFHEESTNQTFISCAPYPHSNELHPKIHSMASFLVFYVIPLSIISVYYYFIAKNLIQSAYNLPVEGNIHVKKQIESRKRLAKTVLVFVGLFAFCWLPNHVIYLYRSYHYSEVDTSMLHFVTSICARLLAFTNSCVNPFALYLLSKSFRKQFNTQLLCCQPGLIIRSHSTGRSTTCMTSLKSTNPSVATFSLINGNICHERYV

D2 = target: T3, D2 (Homo sapiens, UniProt P14416); assay: as above; format: cell-based
T3 construct: purchased Millipore
T3 sequence (P14416 whole entry): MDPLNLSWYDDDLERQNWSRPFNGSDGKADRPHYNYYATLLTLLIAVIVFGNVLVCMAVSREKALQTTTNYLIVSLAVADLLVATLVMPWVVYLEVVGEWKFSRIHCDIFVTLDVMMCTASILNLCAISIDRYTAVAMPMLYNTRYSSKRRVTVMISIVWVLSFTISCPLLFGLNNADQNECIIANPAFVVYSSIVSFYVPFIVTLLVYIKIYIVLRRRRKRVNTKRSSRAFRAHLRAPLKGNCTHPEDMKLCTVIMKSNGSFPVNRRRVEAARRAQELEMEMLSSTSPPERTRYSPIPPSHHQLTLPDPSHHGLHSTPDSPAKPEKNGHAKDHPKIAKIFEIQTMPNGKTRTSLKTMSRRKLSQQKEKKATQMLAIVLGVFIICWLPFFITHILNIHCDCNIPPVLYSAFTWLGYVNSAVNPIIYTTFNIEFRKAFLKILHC

CGRP1 = target: T4, CGRP1 (Homo sapiens, UniProt O60894+Q16602); assay: as above; format: cell-based
T4 construct: purchased Millipore
T4 sequence (Q16602 23-461): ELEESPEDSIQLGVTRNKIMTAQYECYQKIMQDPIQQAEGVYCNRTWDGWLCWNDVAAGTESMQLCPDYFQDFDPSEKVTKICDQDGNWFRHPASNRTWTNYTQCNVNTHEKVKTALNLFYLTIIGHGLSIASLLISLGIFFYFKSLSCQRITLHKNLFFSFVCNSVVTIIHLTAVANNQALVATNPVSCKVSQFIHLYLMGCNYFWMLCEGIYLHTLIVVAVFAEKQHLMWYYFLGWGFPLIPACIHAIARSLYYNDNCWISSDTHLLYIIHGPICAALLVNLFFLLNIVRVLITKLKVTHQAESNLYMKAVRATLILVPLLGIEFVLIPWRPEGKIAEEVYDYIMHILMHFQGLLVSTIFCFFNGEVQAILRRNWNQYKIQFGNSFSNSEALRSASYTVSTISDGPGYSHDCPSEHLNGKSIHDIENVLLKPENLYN
T4 sequence (O60894 27-148 partner): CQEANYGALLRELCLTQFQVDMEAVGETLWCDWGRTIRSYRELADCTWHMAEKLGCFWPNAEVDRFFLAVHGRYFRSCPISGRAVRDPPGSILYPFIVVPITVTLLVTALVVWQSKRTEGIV

Cav1.2 = Cav1.2 (Homo sapiens, UniProt Q13936); assay: Cardiac ion channel profile; format: cell-based
PK1 = target: T5, PK1 (Homo sapiens, UniProt Q8TCW9); assay: Millipore Drug Discovery Safety and Liability Panel; format: cell-based
T5 construct: Millipore
T5 sequence (Q8TCW9 whole entry): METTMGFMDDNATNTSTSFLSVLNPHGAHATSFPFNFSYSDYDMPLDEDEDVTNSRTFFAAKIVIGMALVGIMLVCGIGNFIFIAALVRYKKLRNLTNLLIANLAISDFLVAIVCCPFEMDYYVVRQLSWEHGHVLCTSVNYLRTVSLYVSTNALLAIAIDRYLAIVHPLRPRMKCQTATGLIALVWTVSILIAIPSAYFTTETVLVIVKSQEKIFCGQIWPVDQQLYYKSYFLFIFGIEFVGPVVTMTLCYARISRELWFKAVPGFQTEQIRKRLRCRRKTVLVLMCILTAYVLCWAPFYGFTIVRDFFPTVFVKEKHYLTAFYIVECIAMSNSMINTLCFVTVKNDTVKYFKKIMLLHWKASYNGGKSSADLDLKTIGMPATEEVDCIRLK

ETA = target: T6, ETA (Homo sapiens, UniProt P25101); assay: as above; format: cell-based
T6 construct: purchased Millipore
T6 sequence (P25101 21-427): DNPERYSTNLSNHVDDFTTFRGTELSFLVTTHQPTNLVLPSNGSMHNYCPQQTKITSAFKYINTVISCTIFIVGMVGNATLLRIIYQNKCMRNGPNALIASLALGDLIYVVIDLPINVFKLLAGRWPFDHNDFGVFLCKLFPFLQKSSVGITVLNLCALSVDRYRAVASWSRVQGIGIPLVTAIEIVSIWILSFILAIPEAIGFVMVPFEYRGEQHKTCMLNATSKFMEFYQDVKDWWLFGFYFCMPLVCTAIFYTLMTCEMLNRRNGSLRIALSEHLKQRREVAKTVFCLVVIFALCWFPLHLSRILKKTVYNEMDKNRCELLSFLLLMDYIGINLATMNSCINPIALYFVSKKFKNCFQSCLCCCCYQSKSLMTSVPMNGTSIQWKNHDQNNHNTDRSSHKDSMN

A1 = target: T7, A1 (Homo sapiens, UniProt P30542); assay: as above; format: cell-based
T7 construct: purchased Millipore
T7 sequence (P30542 whole entry): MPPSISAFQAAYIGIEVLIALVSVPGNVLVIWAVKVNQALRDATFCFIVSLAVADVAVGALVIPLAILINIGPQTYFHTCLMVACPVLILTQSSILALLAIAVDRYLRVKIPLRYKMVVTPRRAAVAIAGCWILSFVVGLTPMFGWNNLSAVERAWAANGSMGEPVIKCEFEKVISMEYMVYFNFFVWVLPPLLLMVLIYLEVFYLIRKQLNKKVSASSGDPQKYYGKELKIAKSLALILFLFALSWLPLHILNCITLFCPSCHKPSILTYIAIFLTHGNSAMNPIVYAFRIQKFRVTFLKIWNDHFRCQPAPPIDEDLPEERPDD

5-HT2A = target: T8, 5-HT2A (Homo sapiens, UniProt P28223); assay: as above; format: cell-based
T8 construct: purchased Millipore
T8 sequence (P28223 whole entry): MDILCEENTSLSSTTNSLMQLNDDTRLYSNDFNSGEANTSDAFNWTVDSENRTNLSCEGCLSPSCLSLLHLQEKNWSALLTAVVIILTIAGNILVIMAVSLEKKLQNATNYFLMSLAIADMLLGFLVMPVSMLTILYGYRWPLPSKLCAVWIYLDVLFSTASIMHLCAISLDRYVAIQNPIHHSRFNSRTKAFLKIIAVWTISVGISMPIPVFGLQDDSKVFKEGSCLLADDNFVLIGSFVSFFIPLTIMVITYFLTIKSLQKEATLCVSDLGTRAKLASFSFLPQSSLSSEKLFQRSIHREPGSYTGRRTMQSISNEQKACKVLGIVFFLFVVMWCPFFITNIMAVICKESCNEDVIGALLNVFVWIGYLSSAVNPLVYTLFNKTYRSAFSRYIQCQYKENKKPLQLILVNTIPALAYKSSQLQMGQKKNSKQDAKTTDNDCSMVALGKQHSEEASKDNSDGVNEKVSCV

CCR2B = target: T9, CCR2B (Homo sapiens, UniProt P41597); assay: as above; format: cell-based
T9 construct: purchased Millipore
T9 sequence (P41597 1-360 isoform P41597-2): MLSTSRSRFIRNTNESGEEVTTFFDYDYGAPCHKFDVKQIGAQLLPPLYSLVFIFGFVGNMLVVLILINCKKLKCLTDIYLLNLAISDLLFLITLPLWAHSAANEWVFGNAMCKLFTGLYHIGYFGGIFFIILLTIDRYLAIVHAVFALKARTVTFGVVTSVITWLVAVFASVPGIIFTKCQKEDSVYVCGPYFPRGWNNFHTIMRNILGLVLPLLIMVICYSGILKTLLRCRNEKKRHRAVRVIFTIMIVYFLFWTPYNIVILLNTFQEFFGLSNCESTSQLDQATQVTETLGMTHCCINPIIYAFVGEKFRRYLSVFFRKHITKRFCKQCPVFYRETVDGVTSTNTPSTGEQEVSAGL

A2A = target: T10, A2A (Homo sapiens, UniProt P29274); assay: as above; format: cell-based
T10 construct: purchased Millipore
T10 sequence (P29274 whole entry): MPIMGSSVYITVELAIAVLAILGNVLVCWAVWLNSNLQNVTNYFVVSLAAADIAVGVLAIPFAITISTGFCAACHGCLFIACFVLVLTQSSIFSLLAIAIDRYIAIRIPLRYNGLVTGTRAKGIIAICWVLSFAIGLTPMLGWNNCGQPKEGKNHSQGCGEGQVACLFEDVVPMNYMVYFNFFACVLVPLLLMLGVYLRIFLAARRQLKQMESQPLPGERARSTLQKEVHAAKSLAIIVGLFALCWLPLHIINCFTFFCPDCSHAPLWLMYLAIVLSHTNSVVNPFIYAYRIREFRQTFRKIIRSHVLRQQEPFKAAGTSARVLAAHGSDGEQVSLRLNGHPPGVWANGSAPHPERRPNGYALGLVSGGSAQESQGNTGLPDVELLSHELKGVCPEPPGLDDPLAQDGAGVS

EP2 = target: T11, EP2 (Homo sapiens, UniProt P43116); assay: as above; format: cell-based
T11 construct: purchased Millipore
T11 sequence (P43116 whole entry): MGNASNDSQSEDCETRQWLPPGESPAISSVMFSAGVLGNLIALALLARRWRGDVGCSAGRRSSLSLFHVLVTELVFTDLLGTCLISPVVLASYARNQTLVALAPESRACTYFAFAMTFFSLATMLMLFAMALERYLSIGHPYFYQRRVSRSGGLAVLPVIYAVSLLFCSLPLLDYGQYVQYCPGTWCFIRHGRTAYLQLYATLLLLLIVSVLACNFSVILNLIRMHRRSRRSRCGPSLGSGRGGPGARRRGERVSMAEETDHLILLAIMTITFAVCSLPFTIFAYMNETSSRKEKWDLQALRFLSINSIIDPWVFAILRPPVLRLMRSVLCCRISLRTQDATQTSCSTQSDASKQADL

[1] = system: AVM formation in Eng-iKO mice; assay: Prevention of AVM formation in Eng-iKO mice (retinal vascular network); format: in vivo, mouse
Method: The Eng Flox/flox; cdh5-CreERT2 were injected with tamoxifen (50 μg) at P2 to […] once at P3, P4, P5 and P6. The same volume of vehicle was injected serving as control animals. Mice were then euthanized at P7 and retinas processed for immunofluorescence staining as described (Lebrin et al., as above).
The same volume of vehicle was injected serving as control animals. Mice were then euthanized at P7 and retinas processed for immunofluorescence staining as described (Lebrin et al., as above).
For the retinal vascular network, quantification of the number of AV shunts per mouse was done manually. […] A custom own-lab made macro allowed automatic processing of the images, using the same processing and quantification parameters. Briefly, the brightness of the images was enhanced by modifying the pixel extreme values, which depends on the specific image histogram content. A Gaussian filter was applied to reduce the intensity in homogeneities. The filter order depended on the image resolution. Next, the threshold step was computed, based on a global threshold technique such as Otsu's method or Li's method, resulting in binary image. A median filter was then applied to eliminate potential local irregularities, which could cause false branching point detection. From the binary images, the vascular density was quantified (calculated as the ratio of pixels associated with the vessels divided by the total number of pixels in the image). For the other parameters, a skeleton of the images was first computed using ImageJ, then the total vascular length was quantified using the Measure Skeleton Length plug-in from ImageJ. The number of branch points was extracted from the Analyze Skeleton plug-in of ImageJ. All results were transferred to Microsoft Office Excel software and automatically rearranged using a lab custom-made program. As all images generated at each step of the processing were saved, a visual control was made to ensure that there were no aberrant results.
Statistical analysis was performed with Prism 7 software (GraphPad). For most of the experiments, 1-way ANOVA was used for multiple comparisons. Results are expressed as mean±SEM. For post hoc pairwise, the Dunnett's test was used. A value of *P<0.05, **P<0.01, ***P<0.001 or ****P<0.0001 denotes statistical significance. An in-group variation of around 15% in parameters related to blood vessel architecture changes has been previously observed by the inventors, therefore a difference between controls and mutant mice of around 20-30% was anticipated. It was therefore expected that a group of 8 mice per condition would reveal statistical differences.
Eyes were fixed in 4% paraformaldehyde (PFA) in PBS at room temperature for 10 min, retinas were dissected, post-fixed in 4% PFA in PBS at 4° C. overnight then processed for immunostaining. Retinas were permeabilized in PBS, 1% BSA and 0.5% Triton X-100 at 4° C. overnight, rinsed in PBS, washed twice in PBlec (PBS, pH 6.8, 1% Triton-X-100, 0.1 mM CaCl2, 0.1 mM MgCl2, 0.1 mM MnCl2), and then incubated in biotinylated Griffonia simplicifolia lectin (isolectin B4) (B-1205, Vector Laboratories, 1:50) in PBlec at 4° C. overnight. After 5 washes in PBS, samples were incubated with streptavidin Cy-3 (PA43001, Sigma-Aldrich, 1:100) and with a-SMA (clone 1A4) (F3777, Sigma-Aldrich) conjugated with FITC diluted in PBS, 0.5% BSA, and 0.25% X-100 at 4° C. for 2 h. After washing, flat whole-mount retinas were mounted in DAKO medium (S3023, Dako). Complete high-resolution 3-dimensional rendering of whole-mount retinas was acquired using Laser Scanning Microscope SP5 or SP8 (Leica).

[2] = system: AKT kinase in Pi3Kα or PTEN mutant cells lines (e.g. MCF7, BT474 or LnCAP); assay: AKT kinase inhibition in Pi3Kα or PTEN mutant cell lines; format: cell-based; conditions: read-out: IC50 range for AKT kinase inhibition
[3] = read-out: ANTAGONIST mean % inhibition

T1 sequence (P21728 whole entry): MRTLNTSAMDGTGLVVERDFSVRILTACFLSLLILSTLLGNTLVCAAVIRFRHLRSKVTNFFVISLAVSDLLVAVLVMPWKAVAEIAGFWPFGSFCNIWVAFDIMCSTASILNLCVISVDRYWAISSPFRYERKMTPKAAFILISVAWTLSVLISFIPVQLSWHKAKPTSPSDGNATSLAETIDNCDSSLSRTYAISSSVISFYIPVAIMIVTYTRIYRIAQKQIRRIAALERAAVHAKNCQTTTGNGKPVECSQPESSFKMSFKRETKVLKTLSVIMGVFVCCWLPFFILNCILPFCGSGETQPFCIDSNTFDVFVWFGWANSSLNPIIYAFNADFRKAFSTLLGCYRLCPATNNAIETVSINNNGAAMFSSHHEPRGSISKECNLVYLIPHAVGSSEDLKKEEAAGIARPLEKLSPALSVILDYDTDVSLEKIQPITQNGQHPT

For CCN1C(=O)COc2nc(-c3ccc(C4(N)CC(O)C4)cc3)c(-c3ccccc3)cc21.O=C(O)C(O)C(O)C(=O)O [VAD044, 6-(4-(1-amino-3-hydroxycyclobutyl)phenyl)-1-ethyl-7-phenyl-1H-pyrido[2,3-b][1,4]oxazin-2(3H)-one L-tartrate], which activation at 10 µM (D1; D1, 10 μM, read-out: AGONIST mean % increase in activity) is on record?
The activation at 10 µM was 1.5%.

And the inhibition at 10 µM (D1; [3])?
The inhibition at 10 µM was 18.7%.

And the activation at 10 µM (BB2; BB2, 10 μM, read-out: AGONIST mean % increase in activity)?
Its activation at 10 µM is -0.9%.

What about the inhibition at 10 µM (BB2; [3]) of the same molecule?
The inhibition at 10 µM was 0.9%.

What about the activation at 10 µM (D2; D2, 10 μM, read-out: AGONIST mean % increase in activity) of the same molecule?
The activation at 10 µM was -1.1%.

And the inhibition at 10 µM (D2; [3])?
The inhibition at 10 µM was -0.2%.

What about the activation at 10 µM (CGRP1; CGRP1, 10 μM, read-out: AGONIST mean % increase in activity) of the same molecule?
The activation at 10 µM was -0.1%.

And the inhibition at 10 µM (CGRP1; [3])?
The inhibition at 10 µM was -7.9%.

And the inhibition at 10 µM (Cav1.2)?
Its inhibition at 10 µM is less than 25%.

What about the inhibition at 10 µM (PK1; PK-1, read-out: ANTAGONIST mean % inhibition) of the same molecule?
Its inhibition at 10 µM is -2.1%.

What about the activation at 10 µM (PK1; PK-1, PK1, 10 μM, read-out: AGONIST mean % increase in activity) of the same molecule?
Its activation at 10 µM is 0%.

And the activation at 10 µM (ETA; ETA, 10 μM, read-out: AGONIST mean % increase in activity)?
The activation at 10 µM was -0.4%.

What about the inhibition at 10 µM (ETA; [3]) of the same molecule?
The inhibition at 10 µM was 10.5%.

And the activation at 10 µM (A1; A1, 10 μM, read-out: AGONIST mean % increase in activity)?
The activation at 10 µM was 0%.

What about the inhibition at 10 µM (A1; [3]) of the same molecule?
The inhibition at 10 µM was 7.7%.

And the activation at 10 µM (5-HT2A; read-out: AGONIST mean % increase in activity)?
Its activation at 10 µM is 1.3%.

What about the inhibition at 10 µM (5-HT2A; [3]) of the same molecule?
Its inhibition at 10 µM is -0.7%.

And the activation at 10 µM (CCR2B; CCR2B, 10 μM, read-out: AGONIST mean % increase in activity)?
The activation at 10 µM was -0.1%.

And the inhibition at 10 µM (CCR2B; [3])?
Its inhibition at 10 µM is 9.1%.

What about the “AGONIST mean % increase in activity” value (A2A; A2A, 10 μM) of the same molecule?
Its value is 2.3%.

And the inhibition at 10 µM (A2A; [3])?
Its inhibition at 10 µM is 12.5%.

What about the activation at 10 µM (EP2; EP2, 10 μM, read-out: AGONIST mean % increase in activity) of the same molecule?
Its activation at 10 µM is -1%.

What about the inhibition at 10 µM (EP2; [3]) of the same molecule?
The inhibition at 10 µM was -0.5%.

What about the “prevention of AVM shunt formation” value ([1]; 2.5 mg·kg−1) of the same molecule?
Its value is “fully prevent AVM shunt formation”.

And the “density of the retinal vascular network” value ([1]; Eng-iKO mice)?
Its value is “normalize the density”.

And the “number of branch points of the Eng-iKO vascular network” value ([1]; Eng-iKO mice)?
The value was “slightly reducing”.

And the “radial expansion of the Eng-iKO vascular network” value ([1]; Eng-iKO mice)?
Its value is “slightly reducing”.

And the “prevention of AV shunt formation” value ([1]; Eng-iKO mice, 1.25 mg·kg-1)?
The value was “not to be effective”.

What about the “prevention of AV shunt formation” value ([1]; Eng-iKO mice, 2.5 mg·kg-1 and above, at P3 and P5) of the same molecule?
Its value is “efficiently prevented AV shunt formation”.

What about the minimal effective dose ([1]; HHT1 (Eng-iKO) mouse model) of the same molecule?
Its minimal effective dose is 2.5 mg/kg.

And the pIC50 [2]?
The pIC50 was 6.89 to 7.30.
